Measurements as given in PubChem BioAssay (NCI).
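Cells were grown in 96-well plates and exposed to each compound for 48 hours at five concentrations; endpoints were interpolated linearly between bracketing concentrations, or set to the highest concentration if not reached. Here, GI50 denotes the concentration required for 50% inhibition of growth. TGI denotes the concentration required for complete inhibition of growth.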

Key:
Assay in all cases: NCI tumour cell line growth inhibition, 48 h
786-0 renal = system: 786-0 renal
NCI-H522 lung = system: NCI-H522 lung
HT29 colon = system: HT29 colon
OVCAR-5 ovarian = system: OVCAR-5 ovarian
M14 melanoma = system: M14 melanoma
ACHN renal = system: ACHN renal
NCI-H23 lung = system: NCI-H23 lung
OVCAR-8 ovarian = system: OVCAR-8 ovarian
T-47D breast = system: T-47D breast
SK-MEL-2 melanoma = system: SK-MEL-2 melanoma
BT-549 breast = system: BT-549 breast
A498 renal = system: A498 renal
SR leukemia = system: SR leukemia
K-562 leukemia = system: K-562 leukemia
SNB-19 CNS = system: SNB-19 CNS
OVCAR-3 ovarian = system: OVCAR-3 ovarian
CAKI-1 renal = system: CAKI-1 renal
NCI-H460 lung = system: NCI-H460 lung
SK-OV-3 ovarian = system: SK-OV-3 ovarian
NCI-H226 lung = system: NCI-H226 lung
CCRF-CEM leukemia = system: CCRF-CEM leukemia
SW-620 colon = system: SW-620 colon
U251 CNS = system: U251 CNS
TK-10 renal = system: TK-10 renal
HCC-2998 colon = system: HCC-2998 colon
A549 NSCLC = system: A549 NSCLC
SF-539 CNS = system: SF-539 CNS
MOLT-4 leukemia = system: MOLT-4 leukemia
SNB-75 CNS = system: SNB-75 CNS
UACC-257 melanoma = system: UACC-257 melanoma
KM12 colon = system: KM12 colon
MCF7 breast = system: MCF7 breast
RPMI-8226 leukemia = system: RPMI-8226 leukemia
RXF 393 renal = system: RXF 393 renal
MALME-3M melanoma = system: MALME-3M melanoma
OVCAR-4 ovarian = system: OVCAR-4 ovarian
UACC-62 melanoma = system: UACC-62 melanoma
HCT-15 colon = system: HCT-15 colon
DU-145 prostate = system: DU-145 prostate
HS 578T breast = system: HS 578T breast
SK-MEL-5 melanoma = system: SK-MEL-5 melanoma
SF-295 CNS = system: SF-295 CNS
LOX IMVI melanoma = system: LOX IMVI melanoma
UO-31 renal = system: UO-31 renal
HOP-92 NSCLC = system: HOP-92 NSCLC
IGROV1 ovarian = system: IGROV1 ovarian
MDA-MB-435 = system: MDA-MB-435
HOP-62 NSCLC = system: HOP-62 NSCLC
SF-268 CNS = system: SF-268 CNS
HCT-116 colon = system: HCT-116 colon
SK-MEL-28 melanoma = system: SK-MEL-28 melanoma
COLO 205 colon = system: COLO 205 colon
MDA-MB-231 breast = system: MDA-MB-231 breast
HL-60(TB) leukemia = system: HL-60(TB) leukemia
NCI/ADR-RES ovarian = system: NCI/ADR-RES ovarian
PC-3 prostate = system: PC-3 prostate
SN12C renal = system: SN12C renal

## CCCC[n+]1c(/C=C\c2c(OC)cc(OC)cc2OC)ccc2ccccc21
786-0 renal
  GI50: 2840 nM
  TGI: 13000 nM
NCI-H522 lung
  GI50: 678 nM
  TGI: 3070 nM
HT29 colon
  GI50: 663 nM
  TGI: 4090 nM
OVCAR-5 ovarian
  GI50: 2260 nM
  TGI: 10300 nM
M14 melanoma
  GI50: 1180 nM
  TGI: 2810 nM
ACHN renal
  GI50: 3010 nM
  TGI: 11800 nM
NCI-H23 lung
  GI50: 779 nM
  TGI: 8170 nM
OVCAR-8 ovarian
  GI50: 613 nM
  TGI: 7690 nM
T-47D breast
  GI50: 205 nM
  TGI: 2060 nM
SK-MEL-2 melanoma
  GI50: 1080 nM
  TGI: 2740 nM
BT-549 breast
  GI50: 738 nM
  TGI: 3190 nM
A498 renal
  GI50: 157 nM
  TGI: 2870 nM
SR leukemia
  GI50: 306 nM
  TGI: 30300 nM
K-562 leukemia
  GI50: 294 nM
  TGI: > 38600 nM
SNB-19 CNS
  GI50: 604 nM
  TGI: 6790 nM
OVCAR-3 ovarian
  GI50: 515 nM
  TGI: 2570 nM
CAKI-1 renal
  GI50: 2730 nM
  TGI: 11500 nM
NCI-H460 lung
  GI50: 574 nM
  TGI: 2830 nM
SK-OV-3 ovarian
  GI50: 1980 nM
  TGI: 8830 nM
NCI-H226 lung
  GI50: 1920 nM
  TGI: 12600 nM
CCRF-CEM leukemia
  GI50: 1480 nM
  TGI: 18400 nM
SW-620 colon
  GI50: 814 nM
  TGI: 10000 nM
U251 CNS
  GI50: 353 nM
  TGI: 3660 nM
TK-10 renal
  GI50: 1550 nM
  TGI: 6260 nM
HCC-2998 colon
  GI50: 946 nM
  TGI: 7830 nM
A549 NSCLC
  GI50: 1180 nM
  TGI: 10500 nM
SF-539 CNS
  GI50: 1440 nM
  TGI: 4650 nM
MOLT-4 leukemia
  GI50: 1640 nM
  TGI: 8920 nM
SNB-75 CNS
  GI50: 1570 nM
  TGI: 8210 nM
UACC-257 melanoma
  GI50: 380 nM
  TGI: 2790 nM
KM12 colon
  GI50: 345 nM
  TGI: 1590 nM
MCF7 breast
  GI50: 494 nM
  TGI: 4730 nM
RPMI-8226 leukemia
  GI50: 279 nM
  TGI: 2730 nM
RXF 393 renal
  GI50: 1590 nM
  TGI: 5870 nM
MALME-3M melanoma
  GI50: 362 nM
  TGI: 2070 nM
OVCAR-4 ovarian
  GI50: 1680 nM
  TGI: 13600 nM
UACC-62 melanoma
  GI50: 777 nM
  TGI: 2340 nM
HCT-15 colon
  GI50: 2840 nM
  TGI: 12300 nM
DU-145 prostate
  GI50: 1040 nM
  TGI: 11100 nM
HS 578T breast
  GI50: 1280 nM
  TGI: 8640 nM
SK-MEL-5 melanoma
  GI50: 299 nM
  TGI: 1290 nM
SF-295 CNS
  GI50: 802 nM
  TGI: 3250 nM
LOX IMVI melanoma
  GI50: 827 nM
  TGI: 2580 nM
UO-31 renal
  GI50: 2220 nM
  TGI: 8260 nM
HOP-92 NSCLC
  GI50: 502 nM
  TGI: 4800 nM
IGROV1 ovarian
  GI50: 1090 nM
  TGI: 6700 nM
MDA-MB-435
  GI50: 393 nM
  TGI: 1870 nM
HOP-62 NSCLC
  GI50: 2580 nM
  TGI: 10500 nM
SF-268 CNS
  GI50: 2030 nM
  TGI: 10300 nM
HCT-116 colon
  GI50: 413 nM
  TGI: 3480 nM
SK-MEL-28 melanoma
  GI50: 601 nM
  TGI: 2750 nM
COLO 205 colon
  GI50: 332 nM
  TGI: 1190 nM
MDA-MB-231 breast
  GI50: 1420 nM
  TGI: 4620 nM
HL-60(TB) leukemia
  GI50: 241 nM
  TGI: 1390 nM
NCI/ADR-RES ovarian
  GI50: 15900 nM
  TGI: > 71900 nM
PC-3 prostate
  GI50: 737 nM
  TGI: 5710 nM
SN12C renal
  GI50: 728 nM
  TGI: 5770 nM
